Laboratory results as given in patent publication US6864068B2, “Antifungal proteins” (Syngenta Limited, priority 1995, dated 2005).

System: F culmorum
Assay: Specific antifungal activity of Rs-AFP2 isoforms in SMF− and SMF+ media
Type: cell-based
Parameters: IC50 SMF− / IC50 SMF+: unit not given here
Details: for RELATIVE SPECIFIC ACTIVITY (%) IN MEDIUM SMF+ / RELATIVE SPECIFIC ACTIVITY (%) IN MEDIUM SMF−: 1/IC50 of mutant divided by that of yRs-AFP2 x 100, 48 hour incubation, preliminary tests; for RELATIVE SPECIFIC ACTIVITY (%) IN MEDIUM SMF+: SMF with 1 mM CaCl2 and 50 mM KCl; for RELATIVE SPECIFIC ACTIVITY (%) IN MEDIUM SMF−: low ionic strength medium; for IC50 SMF+ / IC50 SMF−: 72 hours growth, triplicate; for IC50 SMF+: high salt medium (1 mM CaCl2, 50 mM KCl); for IC50 SMF− / effect of substitution on antifungal activity in SMF−, in words: low salt medium; for effect of substitution on antifungal activity in SMF+, in words / effect of substitution on antifungal activity in SMF−, in words: Table 2 tests; for effect of substitution on antifungal activity in SMF+, in words: high salt medium; for relative specific antifungal activity (1/IC50), FIG. 6, in words: medium SMF+, Rs-AFP2 set at 100
Description: For each isoform, two independent purifications were carried out and the antifungal activity was determined in duplicate using F culmorum as a test fungus in two different media: a low ionic strength medium called SMF-(Terras et al, 1992, J Biol Chem, 267:15301-15309) and the same medium supplemented with 1 mM CaCl2 and 50 mM KCl called SMF+. The presence of salts in the test medium, especially salts with divalent cations, reduces the specific activity of Rs-AFP2. Seed-purified as well as yeast-expressed wild type Rs-AFP2 served as a control in the assays.
The relative specific activity is expressed as the specific activity of the mutant divided by the specific activity of yRs-AFP2 and multiplied by 100. […] The specific activity was measured in medium SMF−and SMF+.
Deviations are given as standard error of the mean (sem) based on the triplicate experiments. In SMF−, the medium without added salts, most of the derivatives show no decrease or only a minor decrease in antifungal activity, while in SMF+, the medium with added salts, there is a significant decrease in antifungal activity for several Rs-AFP2 isoforms.

Substance | RELATIVE SPECIFIC ACTIVITY (%) IN MEDIUM SMF+ [%] | RELATIVE SPECIFIC ACTIVITY (%) IN MEDIUM SMF− [%] | IC50 SMF+ | IC50 SMF− | antifungal activity compared with yRs-AFP2 in high salt (SMF+), in words (Table 1 tests) | antifungal activity compared with yRs-AFP2 in low salt (SMF−), in words (Table 1 tests) | effect of substitution on antifungal activity in SMF+, in words | effect of substitution on antifungal activity in SMF−, in words | relative specific antifungal activity (1/IC50), FIG. 6, in words | antifungal activity compared with yRs-AFP2, in words (Table 1 tests, SMF− and SMF+)
yRs-AFP2/A31W (QKLCQRPSGTWSGVCGNNNACKNQCIRLEKWRHGSCNYVFPAHKCICYFPC; listed as Raphanus sativus) | <5 | 15 | >100 | 30.0 | – | – | – | – | – | –
yRs-AFP2/A42R (QKLCQRPSGTWSGVCGNNNACKNQCIRLEKARHGSCNYVFPRHKCICYFPC; listed as Raphanus sativus) | 26 | 44 | 18.0 | 4.2 | – | – | – | – | – | –
yRs-AFP2/F40M (QKLCQRPSGTWSGVCGNNNACKNQCIRLEKARHGSCNYVMPAHKCICYFPC; listed as Raphanus sativus) | 23 | 30 | 54.0 | 16.0 | – | – | – | – | – | –
yRs-AFP2/F49R (QKLCQRPSGTWSGVCGNNNACKNQCIRLEKARHGSCNYVFPAHKCICYRPC; listed as Raphanus sativus) | 22 | 18 | 23.0 | 22.0 | – | – | – | – | – | –
yRs-AFP2/G16M (QKLCQRPSGTWSGVCMNNNACKNQCIRLEKARHGSCNYVFPAHKCICYFPC; listed as Raphanus sativus) | 114 | 151 | 5.0 | 2.2 | not so significantly different in high salt | increased activity in low salt | increased antifungal activity | little effect on the antifungal activity | enhanced activity | –
yRs-AFP2/H33A (QKLCQRPSGTWSGVCGNNNACKNQCIRLEKARAGSCNYVFPAHKCICYFPC; listed as Raphanus sativus) | – | – | >100 | 32.0 | – | – | – | – | – | –
yRs-AFP2/I26R (QKLCQRPSGTWSGVCGNNNACKNQCRRLEKARHGSCNYVFPAHKCICYFPC; listed as Raphanus sativus) | 82 | 76 | 9.6 | 7.2 | – | – | – | – | – | –
yRs-AFP2/I46R (QKLCQRPSGTWSGVCGNNNACKNQCIRLEKARHGSCNYVFPAHKCRCYFPC; listed as Raphanus sativus) | – | 22 | >40 | 12.0 | – | – | – | – | – | –
yRs-AFP2/K44Q (QKLCQRPSGTWSGVCGNNNACKNQCIRLEKARHGSCNYVFPAHQCICYFPC; listed as Raphanus sativus) | 114 | 100 | – | – | – | – | – | – | – | –
yRs-AFP2/L28R (QKLCQRPSGTWSGVCGNNNACKNQCIRREKARHGSCNYVFPAHKCICYFPC; listed as Raphanus sativus) | – | 39 | >100 | 6.4 | – | – | – | – | – | –
yRs-AFP2/N37R (QKLCQRPSGTWSGVCGNNNACKNQCIRLEKARHGSCRYVFPAHKCICYFPC; listed as Raphanus sativus) | 80 | 100 | 7.0 | 2.8 | – | – | – | – | – | –
yRs-AFP2/P7-: yeast-expressed Rs-AFP2 isoform with proline deletion at position 7 (QKLCQRSGTWSGVCGNNNACKNQCIRLEKARHGSCNYVFPAHKCICYFPC; listed as Raphanus sativus) | 17 | 8 | – | – | – | – | – | – | – | –
yRs-AFP2/P7R: yeast-expressed Rs-AFP2 isoform, P7 replaced by arginine (QKLCQRRSGTWSGVCGNNNACKNQCIRLEKARHGSCNYVFPAHKCICYFPC; listed as Raphanus sativus) | 84 | 33 | 8.8 | 6.8 | – | – | – | – | – | –
yRs-AFP2/Q5M: yeast-expressed Rs-AFP2 isoform, position 5 glutamine to methionine (QKLCMRPSGTWSGVCGNNNACKNQCIRLEKARHGSCNYVFPAHKCICYFPC; listed as Raphanus sativus) | 100 | 100 | 5.4 | 4.1 | – | – | increased antifungal activity | little effect on the antifungal activity | enhanced activity | maintain their antifungal activity
yRs-AFP2/S12R (QKLCQRPSGTWRGVCGNNNACKNQCIRLEKARHGSCNYVFPAHKCICYFPC; listed as Raphanus sativus) | 31 | 67 | 20.0 | 3.5 | – | – | – | – | – | –
yRs-AFP2/T10G (QKLCQRPSGGWSGVCGNNNACKNQCIRLEKARHGSCNYVFPAHKCICYFPC; listed as Raphanus sativus) | <16 | 30 | >100 | 11.0 | – | – | – | – | – | –
yRs-AFP2/W11S (QKLCQRPSGTSSGVCGNNNACKNQCIRLEKARHGSCNYVFPAHKCICYFPC; listed as Raphanus sativus) | – | – | >100 | 16.0 | – | – | – | – | – | –
yRs-AFP2/Y38G (QKLCQRPSGTWSGVCGNNNACKNQCIRLEKARHGSCNGVFPAHKCICYFPC; listed as Raphanus sativus) | <4 | 30 | >200 | 42.0 | – | – | – | – | – | –
